Source: patent publication US20030055084A1, “Pharmaceutical compounds and methods of use thereof” (Millennium Pharmaceutical, Inc., priority 2001, published 2003)

Test system: Leukotriene B4 production in ionophore-stimulated human whole blood
Assay: Inhibition of leukotriene B4 production in ionophore-stimulated human whole blood
Format: cell-based
Conditions: calcium ionophore stimulated, LTB4 by EIA, read-out: HWB IC50
Procedure: Inhibition of Leukotriene B4 Production in lonophore-Stimulated Human Whole Blood
Human blood was drawn into heparinized blood collection tubes, and aliquoted in 1 ml portions into 1.5 ml microfuge tubes. Test compound ([…]) of varying concentrations, dissolved in DMSO, was added to the blood sample and incubated for 15 minutes at 37° C. Calcium ionophore ([…]) in DMSO was added to a final concentration of […], and the samples were incubated for 30 minutes at 37° C. Samples are then centrifuged at 1100×g (2500 rpm, H1000B rotor, in a Sorvall centrifuge) for 10 minutes at 4° C. Supernatant ([…]) was transferred into 1 1.5 ml microfuge tube, […] of cold methanol added, and proteins precipitated on ice for 30 minutes. The samples were centrifuged at 110×g for 10 minutes at 4° C., and the supernatant assayed for LTB4 using a commercially available EIA kit (Cayman Chemical) according to manufacturer's specifications. The following IC50 results (nM) were obtained for the specified compounds having the structures as indicated for the corresponding compound number.

In the case of `NC(=O)N(O)CCC#C[C@@H]1CC[C@H](c2cc3cc(C(F)(F)F)ccc3o2)O1` [Compound 4B], the IC50 is reported as 298 nM.

With `NC(=O)N(O)CCC#C[C@H]1CCC(c2cc3cc(F)ccc3o2)O1` (stereo partly drawn) [Compound 6B] the IC50 was 388 nM.

For `C[C@@H](C#C[C@@H]1CC[C@@H](c2cc3ccccc3s2)O1)N(O)C(N)=O` [Compound 3], the IC50 was 197 nM.

Work on `NC(=O)N(O)CCC#C[C@H]1CC[C@@H](c2cc3ccccc3s2)O1` [Compound 2B] yielded an IC50 of 878 nM.

`NC(=O)N(O)CCC#C[C@@H]1CC[C@@H](c2cc3ccccc3s2)O1` [Compound 2A] showed an IC50 of 112 nM.

Work on `NC(=O)N(O)CCC#C[C@@H]1CCC(c2cc3cc(F)ccc3o2)O1` (stereo partly drawn) [Compound 6A] yielded an IC50 of 101 nM.
